The assay has as its system B6C3F1 mice, Lewis lung carcinoma iv, survival T/C. Briefly: NCI In Vivo Anticancer Drug Screen. Data for tumor model Lewis Lung Carcinoma (intravenous) in B6C3F1 mice. Conditions: endpoint: median survival time, schedule: Q01DX009 (ip), higher = longer survival. The procedure: The antitumor activity of compounds was measured in mice bearing transplantable tumors. Survival or tumor size were measured and the results are expressed as the measurement made in the treated group (T) divided by the measurement made in the vehicle treated control group (C). The tumor model used in this assay is Lewis Lung Carcinoma (intravenous) in B6C3F1 mice

[1] abbreviates: dose: 4.0 mg/kg/injection, vehicle: saline with Tween-80.
Where [2] appears, read: dose: 25.0 mg/kg/injection, vehicle: saline.
Setting [3] is: dose: 50.0 mg/kg/injection, vehicle: saline.
Where [4] appears, read: dose: 100.0 mg/kg/injection, vehicle: saline.
Setting [5] is: dose: 200.0 mg/kg/injection, vehicle: saline.
The mark [6] stands for this setting: dose: 25.0 mg/kg/injection, vehicle: saline with Tween-80.
Where [7] appears, read: dose: 50.0 mg/kg/injection, vehicle: saline with Tween-80.
[8] abbreviates: dose: 3.12 mg/kg/injection, vehicle: Klucel (hydroxypropylcellulose) (HPC).

Molecules are shown by their SMILES. Several values for one entry are separate records, joined by “and”; a condition that tells them apart may be missing. Equal entries are not always repeated. Inconclusive results and toxic doses are left out.

Consider `COC1=C2C[C@@H](C)C[C@@H](OC)[C@@H](O)[C@H](C)/C=C(\C)[C@@H](OC(N)=O)[C@H](OC)/C=C\C=C(/C)C(=O)NC(=CC1=O)C2=O`, for which the T/C is, setting by setting: (dose: 0.12 mg/kg/injection, vehicle: saline with Tween-80) 96 % of control; (dose: 0.13 mg/kg/injection, vehicle: saline with Tween-80) 109 % of control; (dose: 0.25 mg/kg/injection, vehicle: saline with Tween-80) 96 % of control and 110 % of control; (dose: 0.5 mg/kg/injection, vehicle: saline with Tween-80) 101 % of control and 108 % of control; (dose: 1.0 mg/kg/injection, vehicle: saline with Tween-80) 101 % of control and 106 % of control; (dose: 2.0 mg/kg/injection, vehicle: saline with Tween-80) 100 % of control and 106 % of control. Further, the T/C under setting [1] was 102 % of control.

Consider `CC(=O)Oc1c(C)[nH]ccc1=O`, for which the T/C reads like this: under setting [2], 97 % of control; under setting [3], 96 % of control; under setting [4], 96 % of control; under setting [5], 103 % of control; (dose: 400.0 mg/kg/injection, vehicle: saline) 114 % of control.

For the compound `OCCO`, the T/C (dose: 0.12 % in 0.5 ml injection vol, vehicle: water) was 107 % of control; the T/C (dose: 0.25 % in 0.5 ml injection vol, vehicle: water) was 109 % of control; the T/C (dose: 0.5 % in 0.5 ml injection vol, vehicle: water) is 95 % of control; the T/C (dose: 1.0 % in 0.5 ml injection vol, vehicle: water) was 99 % of control; the T/C (dose: 2.0 % in 0.5 ml injection vol, vehicle: water) is 97 % of control; the T/C (dose: 4.0 % in 0.5 ml injection vol, vehicle: water) was 99 % of control.

For the compound `O=C(O)CC(=O)O.[NH-]CC[NH-].[Pt+2]`, the T/C (dose: 1.56 mg/kg/injection, vehicle: dextrose) was 108 % of control; the T/C (dose: 3.12 mg/kg/injection, vehicle: dextrose) was 107 % of control and 120 % of control; the T/C (dose: 6.25 mg/kg/injection, vehicle: dextrose) was 105 % of control and 109 % of control; the T/C (dose: 12.5 mg/kg/injection, vehicle: dextrose) is 102 % of control and 119 % of control.

Turning to `O=NN(CCF)C(=O)N[C@H]1CCCC[C@H]1O`, the T/C is 105 % of control (dose: 2.5 mg/kg/injection, vehicle: saline); 121 % of control (dose: 5.0 mg/kg/injection, vehicle: saline); 173 % of control (dose: 10.0 mg/kg/injection, vehicle: saline); 312 % of control (dose: 20.0 mg/kg/injection, vehicle: saline).

With `COc1cc(C2c3cc4c(cc3[C@@H](OC3OC5CO[C@@H](C)OC5C(O)C3O)[C@H]3COC(=O)C23)OCO4)cc(OC)c1OC` (stereo not given in full), the T/C is 113 % of control (dose: 12.5 mg/kg/injection, vehicle: saline); 121 % of control under setting [2]; 117 % of control under setting [3]; 191 % of control under setting [4].

On to `CC(=O)ON(C(C)=O)c1ccc(C(N)=O)cc1`, for which the T/C under setting [6] is 102 % of control; the T/C under setting [7] is 93 % of control; the T/C (dose: 100.0 mg/kg/injection, vehicle: saline with Tween-80) was 107 % of control; the T/C (dose: 200.0 mg/kg/injection, vehicle: saline with Tween-80) was 99 % of control; the T/C (dose: 400.0 mg/kg/injection, vehicle: saline with Tween-80) was 106 % of control.

With `CCCCCCCCCCCCSC1=C(Cl)C(=O)C(OC)=C(OC)C1=O`, the T/C runs as follows: (dose: 3.12 mg/kg/injection, vehicle: saline with Tween-80) 99 % of control; (dose: 6.25 mg/kg/injection, vehicle: saline with Tween-80) 94 % of control; (dose: 12.5 mg/kg/injection, vehicle: saline with Tween-80) 99 % of control; under setting [6], 94 % of control; under setting [7], 96 % of control.

Take `CC(C)CC(=O)NC(C(=O)NC(C(=O)NC(CC(C)C)C(O)CC(=O)NC(C)C(=O)NC(CC(C)C)C(O)CC(=O)O)C(C)C)C(C)C` (stereo not given): the T/C by setting is: under setting [8], 95 % of control; (dose: 6.25 mg/kg/injection, vehicle: Klucel (hydroxypropylcellulose) (HPC)) 99 % of control; (dose: 12.5 mg/kg/injection, vehicle: Klucel (hydroxypropylcellulose) (HPC)) 95 % of control; (dose: 25.0 mg/kg/injection, vehicle: Klucel (hydroxypropylcellulose) (HPC)) 97 % of control; (dose: 50.0 mg/kg/injection, vehicle: Klucel (hydroxypropylcellulose) (HPC)) 97 % of control; (dose: 100.0 mg/kg/injection, vehicle: Klucel (hydroxypropylcellulose) (HPC)) 95 % of control.

Take `CN(C)c1ccc2c(NCCCCCCNc3ccnc4cc(N(C)C)ccc34)ccnc2c1`: the T/C by setting is: (dose: 1.56 mg/kg/injection, vehicle: distilled water + Tween-80 + alcohol) 97 % of control; (dose: 3.12 mg/kg/injection, vehicle: distilled water + Tween-80 + alcohol) 106 % of control; (dose: 6.25 mg/kg/injection, vehicle: distilled water + Tween-80 + alcohol) 111 % of control; (dose: 12.5 mg/kg/injection, vehicle: distilled water + Tween-80 + alcohol) 97 % of control; (dose: 25.0 mg/kg/injection, vehicle: distilled water + Tween-80 + alcohol) 116 % of control.

As to `O=NN(CCCl)C(=O)Oc1ccc(OC(=O)N(CCCl)N=O)cc1`, the T/C (dose: 0.5 mg/kg/injection, vehicle: Klucel (hydroxypropylcellulose) (HPC)) is 95 % of control; the T/C (dose: 1.0 mg/kg/injection, vehicle: Klucel (hydroxypropylcellulose) (HPC)) is 96 % of control; the T/C (dose: 2.0 mg/kg/injection, vehicle: Klucel (hydroxypropylcellulose) (HPC)) was 105 % of control; the T/C under setting [8] was 97 % of control; the T/C (dose: 4.0 mg/kg/injection, vehicle: Klucel (hydroxypropylcellulose) (HPC)) was 111 % of control.

As for `Cc1c(N)nc([C@H](CC(N)=O)NC[C@H](N)C(N)=O)nc1C(=O)N[C@H](C(=O)N[C@H](C)[C@@H](O)[C@H](C)C(=O)N[C@H](C(=O)NCCc1nc(-c2nc(C(=O)NCCC[S+](C)C)cs2)cs1)[C@@H](C)O)C(OC1OC(CO)C(O)C(O)C1OC1OC(CO)C(O)C(OC(N)=O)C1O)c1cnc[nH]1` (stereo not given in full), the T/C was 113 % of control (dose: 1.0 mg/kg/injection, vehicle: saline); 97 % of control and 104 % of control and 112 % of control (dose: 2.0 mg/kg/injection, vehicle: saline).

On to `C=C1C(=O)OCC1(C(=O)OCC)C(=O)OCC`, for which the T/C was 95 % of control under setting [1]; 103 % of control (dose: 8.0 mg/kg/injection, vehicle: saline with Tween-80); 105 % of control (dose: 16.0 mg/kg/injection, vehicle: saline with Tween-80); 96 % of control (dose: 32.0 mg/kg/injection, vehicle: saline with Tween-80).

For the compound `CC[As](=O)(O)CC`, the T/C runs as follows: under setting [3], 95 % of control; under setting [4], 103 % of control; under setting [5], 103 % of control.

Values taken from PubChem BioAssay AID276 (DTP/NCI, 2004).
